Results: ChEMBL document CHEMBL1136189, “Thiourea inhibitors of herpes viruses. Part 1: bis-(aryl)thiourea inhibitors of CMV” (Bioorg Med Chem Lett, 2003)
Values after ≈ are worked out from the molar mass of the structure shown.

Key:
[1] = test system: Human alphaherpesvirus 2; assay: Inhibitory concentration against Herpes simplex virus (HSV); type: functional, organism-based
[2] = test system: Human alphaherpesvirus 3; assay: Inhibitory concentration against Varicella zoster virus (VZV); type: functional, organism-based
[3] = test system: Human betaherpesvirus 5; assay: Inhibitory concentration against human cytomegalovirus (CMV) in cultured human foreskin fibroblast (HFF) cells; type: functional, organism-based; settings: Human betaherpesvirus 5, HFF
[4] = MTS cellular toxicity was determined; type: functional

IC50 [1]	IC50 [2]	SMILES	IC50 [3]	Activity [4]
> 10 µg/mL	> 10 µg/mL	Cc1ccc(N/C(S)=N/c2ccc(NC(=O)c3ccco3)cc2)cc1Cl	0.09 µg/mL (≈ 0.233 µM)	–
> 10 µg/mL	> 10 µg/mL	COc1cc(OC)c(N/C(S)=N/c2ccc(NC(=O)c3ccco3)cc2C)cc1Cl	0.6 µg/mL (≈ 1.35 µM)	–
> 10 µg/mL	> 10 µg/mL	O=C(Nc1ccc(/N=C(\S)Nc2ccc(F)c(Cl)c2)cc1)c1ccco1	0.06 µg/mL (≈ 0.154 µM)	–
> 10 µg/mL	7 µg/mL (≈ 14.8 µM)	O=C(Nc1ccc(/N=C(\S)Nc2cc(C(F)(F)F)cc(C(F)(F)F)c2)cc1)c1ccco1	0.04 µg/mL (≈ 0.0845 µM)	–
> 10 µg/mL	> 10 µg/mL	O=C(Nc1ccc(/N=C(\S)Nc2ccc(C(F)(F)F)c(Cl)c2)cc1)c1cocn1	0.02 µg/mL (≈ 0.0454 µM)	–
> 10 µg/mL	4 µg/mL (≈ 8.13 µM)	COc1cc(OC)c(N/C(S)=N/c2cc(OC)c(NC(=O)c3ccco3)cc2OC)cc1Cl	> 10 µg/mL	–
3 µg/mL (≈ 7.9 µM)	> 10 µg/mL	COc1cc(OC)c(N/C(S)=N/c2ccc(NC(C)=O)cc2)cc1Cl	45 µg/mL (≈ 118 µM)	>10 µg/mL
0.3 µg/mL (≈ 0.679 µM)	> 10 µg/mL	COc1cc(OC)c(N/C(S)=N/c2ccc(NC(=O)c3ccccc3)cc2)cc1Cl	4 µg/mL (≈ 9.05 µM)	>10 µg/mL
> 10 µg/mL	> 10 µg/mL	O=C(Nc1ccc(/N=C(\S)Nc2cc(C(F)(F)F)cc(C(F)(F)F)c2)cc1)c1csnn1	0.02 µg/mL (≈ 0.0407 µM)	–
> 10 µg/mL	> 10 µg/mL	O=C(Nc1ccc(/N=C(\S)Nc2ccc(Cl)c(C(F)(F)F)c2)cc1)c1ccco1	0.03 µg/mL (≈ 0.0682 µM)	–
> 10 µg/mL	> 10 µg/mL	O=C(Nc1ccc(/N=C(\S)Nc2cccc(C(F)(F)F)c2)cc1)c1ccco1	0.06 µg/mL (≈ 0.148 µM)	–
> 10 µg/mL	> 10 µg/mL	O=C(Nc1ccc(/N=C(\S)Nc2cc(C(F)(F)F)cc(C(F)(F)F)c2)cc1)c1cocn1	0.03 µg/mL (≈ 0.0632 µM)	–
> 10 µg/mL	> 10 µg/mL	COc1cc(OC)c(N/C(S)=N/c2ccc(NC(=O)c3ccco3)c(C)c2)cc1Cl	> 10 µg/mL	>10 µg/mL
> 10 µg/mL	> 10 µg/mL	O=C(Nc1ccc(/N=C(\S)Nc2ccc(C(F)(F)F)c(Cl)c2)cc1)c1ccccn1	> 10 µg/mL	–
> 10 µg/mL	> 10 µg/mL	O=C(Nc1ccc(NC(=S)Nc2ccccc2)cc1)c1ccco1	0.3 µg/mL (≈ 0.889 µM)	–
2.5 µg/mL (≈ 5 µM)	> 10 µg/mL	COc1cc(OC)c(N/C(S)=N/c2ccc(NC(=O)c3ccco3)cc2C(F)(F)F)cc1Cl	2 µg/mL (≈ 4 µM)	>10 µg/mL
> 10 µg/mL	> 10 µg/mL	COc1cc(OC)c(N/C(S)=N/c2ccc(NC(=O)c3ccco3)cc2C#N)cc1Cl	> 10 µg/mL	>10 µg/mL
> 10 µg/mL	> 10 µg/mL	COc1cc(OC)c(N/C(S)=N/c2ccc(NC(=O)c3ccco3)cc2)cc1Cl	0.2 µg/mL (≈ 0.463 µM)	>10 µg/mL
3 µg/mL (≈ 7.62 µM)	> 10 µg/mL	CCC(=O)Nc1ccc(N/C(S)=N/c2cc(Cl)c(OC)cc2OC)cc1	–	>10 µg/mL
> 10 µg/mL	> 10 µg/mL	Cc1cccc(N/C(S)=N/c2ccc(NC(=O)c3ccco3)cc2)c1	0.06 µg/mL (≈ 0.171 µM)	–
8 µg/mL (≈ 17.3 µM)	> 10 µg/mL	COc1cc(OC)c(N/C(S)=N/c2ccc(NC(=O)c3ccco3)c(OC)c2)cc1Cl	> 10 µg/mL	–
> 10 µg/mL	> 10 µg/mL	O=C(Nc1ccc(/N=C(\S)Nc2cc(C(F)(F)F)cc(C(F)(F)F)c2)cc1)c1cscn1	0.008 µg/mL (≈ 0.0163 µM)	–
> 10 µg/mL	> 10 µg/mL	O=C(Nc1ccc(/N=C(\S)Nc2ccc(C(F)(F)F)c(Cl)c2)cc1)c1cscn1	0.006 µg/mL (≈ 0.0131 µM)	–
